Test system: Micrococcus flavus ATCC 10240, Sarcina lutea ATCC 9341 and Staph. epidermidis ATCC 12228
Experiment: antibacterial activity compared with tetracycline, statement for three organisms
Format: cell-based
Settings: strongest activity against M. flavus ATCC 10240, Sarcina lutea ATCC 9341, Staph. epidermidis ATCC 12228

Row | SMILES | activity relative to that of tetracycline
1 | CCc1ccc(S(=O)(=O)NC2C(O)=C(C(N)=O)C(=O)C3(O)C(=O)c4c(c(C)c5cccc(O)c5c4O)CC23)cc1 (stereo not shown) [Compound 6, 4-p-ethylbenzenesulfonamido-5a,6-anhydrotetracycline] | considerably superior or equal to that of tetracycline
2 | Cc1c2c(c(O)c3c(O)cccc13)C(=O)C1(O)C(=O)C(C(N)=O)=C(O)C(NS(=O)(=O)c3ccc(F)cc3)C1C2 (stereo not shown) [Compound 3, 4-p-fluorbenzenesulfonamido-5a,6-anhydrotetracycline] | considerably superior or equal to that of tetracycline
3 | Cc1c2c(c(O)c3c(O)cccc13)C(=O)C1(O)C(=O)C(C(N)=O)=C(O)C(NS(=O)(=O)c3ccc(Br)cc3)C1C2 (stereo not shown) [Compound 4, 4-p-bromobenzenesulfonamido-5a,6-anhydrotetracycline] | considerably superior or equal to that of tetracycline
4 | Cc1ccc(S(=O)(=O)NC2C(O)=C(C(N)=O)C(=O)C3(O)C(=O)c4c(c(C)c5cccc(O)c5c4O)CC23)cc1 (stereo not shown) [Compound 2, 4-p-toluene-sulfonamido-5a,6-anhydrotetracycline] | considerably superior or equal to that of tetracycline

— patent publication US4160783A, “4-Dedimethylamino-4-arylsulfonamido-5a,6-anhydrotetracyclines” (PLIVA Pharmaceutical and Chemical Works, priority 1976, dated 1979)
